Activity calls are given as the source filed them. The rule behind the calls is not given here.
What was measured:
Format in all cases: functional, cell-based
SW480 = assay: Cytotoxicity against human SW480 cells assessed as inhibition of cell growth at 40 uM measured after 48 hrs by MTS assay
RAW264.7 = assay: Antiinflammatory activity against mouse RAW264.7 cells assessed as inhibition of LPS induced nitric oxide production at 50 uM followed by LPS stimulation incubated for 18 hrs by Griess reagent based assay
A549 [1] = assay: Cytotoxicity against human A549 cells assessed as inhibition of cell growth at 40 uM measured after 48 hrs by MTS assay
SMMC-7721 [2] = assay: Cytotoxicity against human SMMC-7721 cells assessed as inhibition of cell growth at 40 uM measured after 48 hrs by MTS assay
HL-60 [3] = assay: Cytotoxicity against human HL-60 cells assessed as inhibition of cell growth at 40 uM measured after 48 hrs by MTS assay
MCF7 = assay: Cytotoxicity against human MCF7 cells assessed as inhibition of cell growth at 40 uM measured after 48 hrs by MTS assay
A549 [4] = assay: Cytotoxicity against human A549 cells assessed as inhibition of cell growth measured after 48 hrs by MTS assay; conditions: A549, 48 h
HL-60 [5] = assay: Cytotoxicity against human HL-60 cells assessed as inhibition of cell growth measured after 48 hrs by MTS assay; conditions: HL-60, 48 h
SMMC-7721 [6] = assay: Cytotoxicity against human SMMC-7721 cells assessed as inhibition of cell growth measured after 48 hrs by MTS assay; conditions: SMMC-7721, 48 h

## COC(=O)C1=CCC[C@H]2C13CC[C@@H](C)[C@]21C[C@@H](c2ccoc2)O[C@@H]1O3
SW480
  Activity: inactive
RAW264.7
  Activity: inactive
A549 [1]
  Activity: inactive
SMMC-7721 [2]
  Activity: inactive
HL-60 [3]
  Activity: inactive
MCF7
  Activity: inactive

## CCCCCCCCCC(=O)O[C@@H]1[C@@H](C)[C@@]2(O)[C@@H](C=C(CO)C[C@]3(O)C(=O)C(C)=C[C@@H]23)[C@@H]2C(C)(C)[C@]12OC(C)=O
SW480
  Activity: inactive
RAW264.7
  Activity: inactive
A549 [1]
  Activity: inactive
SMMC-7721 [2]
  Activity: inactive
HL-60 [3]
  Activity: inactive
MCF7
  Activity: inactive

## COC(=O)c1cccc2c1CC[C@@H](C)[C@]21C[C@@H](c2ccoc2)OC1=O
SW480
  Activity: inactive
RAW264.7
  Activity: inactive
A549 [1]
  Activity: inactive
SMMC-7721 [2]
  Activity: inactive
HL-60 [3]
  Activity: inactive
MCF7
  Activity: inactive

## COC(=O)C12C=CC[C@@H]3[C@@H]1CC[C@H](C)[C@@]31C[C@H](c3ccoc3)O[C@H]1O2
SW480
  Activity: inactive
RAW264.7
  Activity: inactive
A549 [1]
  Activity: inactive
SMMC-7721 [2]
  Activity: inactive
HL-60 [3]
  Activity: inactive
MCF7
  Activity: inactive

## CC(=O)O[C@H]1C(=O)[C@@]2(C)[C@H]([C@H](OC(=O)c3ccccc3)[C@]3(O)C[C@H](OC(=O)[C@H](O)[C@@H](NC(=O)c4ccccc4)c4ccccc4)C(C)=C1C3(C)C)[C@]1(OC(C)=O)CO[C@@H]1C[C@@H]2O [PACLITAXEL]
A549 [4]
  IC50: < 0.008 µM
HL-60 [5]
  IC50: < 0.008 µM
SMMC-7721 [6]
  IC50: 0.143 µM

## COc1c(C)cc2c(c1O)[C@]1(C)CCC(=O)C(C)(C)C1=C(O)C2=O
A549 [4]
  IC50: 27.4 µM
RAW264.7
  Activity: inactive
HL-60 [5]
  IC50: 14.4 µM
SMMC-7721 [6]
  IC50: 4.47 µM

## COC(=O)C1=CCC[C@@H]2[C@]13CC[C@H](C)[C@@]21C[C@H](c2ccoc2)O[C@H]1OC3=O
SW480
  Activity: inactive
RAW264.7
  Activity: inactive
A549 [1]
  Activity: inactive
SMMC-7721 [2]
  Activity: inactive
HL-60 [3]
  Activity: inactive
MCF7
  Activity: inactive

## COC(=O)C1=CCC[C@@H]2C13CC[C@H](C)[C@@]21C[C@H](c2ccoc2)O[C@H]1O[C@@H]3O
SW480
  Activity: inactive
RAW264.7
  Activity: inactive
A549 [1]
  Activity: inactive
SMMC-7721 [2]
  Activity: inactive
HL-60 [3]
  Activity: inactive
MCF7
  Activity: inactive

## COC(=O)[C@@H]1C=CC[C@@H]2C13CC[C@@H](C)[C@]21C[C@@H](c2ccoc2)O[C@@H]1O3
SW480
  Activity: inactive
RAW264.7
  Activity: inactive
A549 [1]
  Activity: inactive
SMMC-7721 [2]
  Activity: inactive
HL-60 [3]
  Activity: inactive
MCF7
  Activity: inactive

## COC(=O)C1=CCC[C@H]2C1=CC[C@@H](C)[C@]21C[C@@H](c2ccoc2)OC1=O
SW480
  Activity: inactive
RAW264.7
  Activity: inactive
A549 [1]
  Activity: inactive
SMMC-7721 [2]
  Activity: inactive
HL-60 [3]
  Activity: inactive
MCF7
  Activity: inactive

Source: ChEMBL document CHEMBL4840362, “Diterpenoids from the whole plants of Croton yunnanensis and their bioactivities” (Bioorg Med Chem, 2021)
